Reference: US12410171B2, “Tropomyosin receptor kinase (TRK) degradation compounds and methods of use” (Cullgen (Shanghai), Inc., priority 2020, dated 2025)
Where two headings read alike, the source gives them in different places.

Columns and labels:
KM12 cells = assay: KM12 cell viability (CellTiter-Glo); assay type: cell-based; conditions: Homo sapiens
Outline: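 KM12 cells seeded at 5000 per well in RPMI 1640 + 10% FBS and exposed 3 days to serial dilutions (11-point 3-fold, 8-point 3-fold from 1000 nM, or 12-point 2-fold). Viability by CellTiter-Glo; IC50 from least-squares nonlinear regression.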

TPM3-TRKA fusion protein = target: T1, TPM3-TRKA fusion protein (Homo sapiens, UniProt P04629); assay: TPM3-TRKA fusion protein levels in KM12 cells (Western blot); assay type: cell-based; conditions: read-out: Degradation (at 10 nM)
T1 construct: The resulted chimeric proteins always retain the kinase domain of TRK proteins; TPM3 (fusion partner, N-terminal part of tropomyosin alpha-3, P06753); endogenous in cells; host or cells: KM12 colon cancer cells; the other entry of the earlier key: TPM3 (P06753, Tropomyosin alpha-3 chain)
T1 sequence (P04629 with tags, fused parts or gaps): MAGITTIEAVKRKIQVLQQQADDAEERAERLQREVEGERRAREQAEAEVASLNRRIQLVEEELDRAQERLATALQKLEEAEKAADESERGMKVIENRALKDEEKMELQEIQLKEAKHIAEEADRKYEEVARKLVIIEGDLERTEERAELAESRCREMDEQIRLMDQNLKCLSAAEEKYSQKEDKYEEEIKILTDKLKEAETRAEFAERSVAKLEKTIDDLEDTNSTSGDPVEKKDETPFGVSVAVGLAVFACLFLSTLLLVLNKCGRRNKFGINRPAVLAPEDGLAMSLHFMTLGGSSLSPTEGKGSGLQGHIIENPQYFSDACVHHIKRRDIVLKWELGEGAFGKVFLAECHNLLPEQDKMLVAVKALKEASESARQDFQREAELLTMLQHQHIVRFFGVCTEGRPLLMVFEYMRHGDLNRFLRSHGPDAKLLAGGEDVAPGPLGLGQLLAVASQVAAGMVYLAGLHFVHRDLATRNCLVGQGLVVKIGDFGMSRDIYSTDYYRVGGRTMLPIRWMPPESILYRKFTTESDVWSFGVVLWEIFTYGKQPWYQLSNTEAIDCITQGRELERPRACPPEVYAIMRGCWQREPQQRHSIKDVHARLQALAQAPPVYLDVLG
Outline: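 KM12 colon cancer cells were treated with DMSO or compounds at 0.1–100 nM, 0.4–30 nM or other stated concentrations for 4, 8–16 or 16 h. RIPA lysates were BCA-normalized and resolved by SDS-PAGE. TPM3-TRKA was detected by chemiluminescent Western blot, with bands quantified by densitometry.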

[1] = 72 h, KM12 cell viability, CellTiter-Glo, three days treatment, read-out: IC50
[2] = 16 h, TPM3-TRKA degradation in KM12 cells at 10 nM compound, category of percentage degradation

Row | percent degradation of TPM3-TRKA protein at 0.01 µM (TPM3-TRKA fusion protein; [2]) [%] | Structure (SMILES) | IC50 (KM12 cells; [1]) [nM] | IC50 (KM12 cells; KM12, 72 h) [nM] | percent degradation of TPM3-TRKA protein at 0.01 µM (TPM3-TRKA fusion protein; KM12, 16 h) [%]
1 | > 80 | O=C1CCC(N2C(=O)c3ccc(CN4CCCC(N5CCN(c6ccc(C(=O)Nc7n[nH]c8ccc(Cc9cc(F)cc(F)c9)cc78)c(NC7CCOCC7)c6)CC5)C4)cc3C2=O)C(=O)N1 (stereo not drawn) [TR-279, N-(5-(3,5-difluorobenzyl)-1H-indazol-3-yl)-4-(4-(1-((2-(2,6-dioxopiperidin-3-yl)-1,3-dioxoisoindolin-5-yl)methyl)piperidin-3-yl)piperazin-1-yl)-2-((tetrahydro-2H-pyran-4-yl)amino)benzamide] | 19 | – | –
2 | > 80 | O=C1CCC(N2C(=O)c3ccc(CN4CCC(N5CCN(c6ccc(C(=O)Nc7n[nH]c8ccc(Cc9cc(F)cc(F)c9)cc78)c(NC7CCOCC7)c6)CC5)CC4)cc3C2=O)C(=O)N1 (stereo not drawn) [TR-281, N-(5-(3,5-difluorobenzyl)-1H-indazol-3-yl)-4-(4-(1-((2-(2,6-dioxopiperidin-3-yl)-1,3-dioxoisoindolin-5-yl)methyl)piperidin-4-yl)piperazin-1-yl)-2-((tetrahydro-2H-pyran-4-yl)amino)benzamide] | 17.4 | – | –
3 | > 80 | O=C1CCC(N2C(=O)c3ccc(N4CCOC(CN5CCN(c6ccc(C(=O)Nc7n[nH]c8ccc(Cc9cc(F)cc(F)c9)cc78)c(NC7CCOCC7)c6)CC5)C4)cc3C2=O)C(=O)N1 (stereo not drawn) [TR-282, N-(5-(3,5-difluorobenzyl)-1H-indazol-3-yl)-4-(4-((4-(2-(2,6-dioxopiperidin-3-yl)-1,3-dioxoisoindolin-5-yl)morpholin-2-yl)methyl)piperazin-1-yl)-2-((tetrahydro-2H-pyran-4-yl)amino)benzamide] | 6.3 | – | –
4 | > 80 | O=C1CCC(N2C(=O)c3ccc(C#CCN4CCN(c5ccc(C(=O)Nc6n[nH]c7ccc(Cc8cc(F)cc(F)c8)cc67)c(NC6CCOCC6)c5)CC4)cc3C2=O)C(=O)N1 (stereo not drawn) [TR-283, N-(5-(3,5-Difluorobenzyl)-1H-indazol-3-yl)-4-(4-(3-(2-(2,6-dioxopiperidin-3-yl)-1,3-dioxoisoindolin-5-yl)prop-2-yn-1-yl)piperazin-1-yl)-2-((tetrahydro-28-pyran-4-yl)amino)benzamide] | 54 | – | –
5 | > 80 | O=C1CCC(N2C(=O)c3ccc(N4CCC(N5CCN(c6ccc(C(=O)Nc7n[nH]c8ccc(Cc9cc(F)cc(F)c9)cc78)c(NC7CCOCC7)c6)CC5)C4)cc3C2=O)C(=O)N1 (stereo not drawn) [TR-284, N-(5-(3,5-difluorobenzyl)-1H-indazol-3-yl)-4-(4-(1-(2-(2,6-dioxopiperidin-3-yl)-1,3-dioxoisoindolin-5-yl)pyrrolidin-3-yl)piperazin-1-yl)-2-((tetrahydro-2H-pyran-4-yl)amino)benzamide] | 5 | – | –
6 | > 80 | O=C1CCC(N2C(=O)c3ccc(CN4CCC(N5CCN(c6ccc(C(=O)Nc7n[nH]c8ccc(Cc9cc(F)cc(F)c9)cc78)c(NC7CCOCC7)c6)CC5)C4)cc3C2=O)C(=O)N1 (stereo not drawn) [TR-285, N-(5-(3,5-difluorobenzyl)-1H-indazol-3-yl)-4-(4-(1-((2-(2,6-dioxopiperidin-3-yl)-1,3-dioxoisoindolin-5-yl)methyl)pyrrolidin-3-yl)piperazin-1-yl)-2-((tetrahydro-2H-pyran-4-yl)amino)benzamide] | 9.7 | – | –
7 | > 80 | O=C1CCC(N2C(=O)c3ccc(N4CCOC(CN5CCN(c6cccc(-c7cnc8ccc(N9CCC[C@@H]9c9cccc(F)c9)nn78)n6)CC5)C4)cc3C2=O)C(=O)N1 (stereo partly drawn) [TR-286, 2-(2,6-dioxopiperidin-3-yl)-5-(2-((4-(6-(6-((R)-2-(3-fluorophenyl)pyrrolidin-1-yl)imidazo[1,2-b]pyridazin-3-yl)pyridin-2-yl)piperazin-1-yl)methyl)morpholino) isoindoline-1,3-dione] | 7.8 | – | –
8 | > 80 | O=C1CCC(N2C(=O)c3ccc(N4CC(OC5CCN(c6cccc(-c7cnc8ccc(N9CCC[C@@H]9c9cccc(F)c9)nn78)n6)CC5)C4)cc3C2=O)C(=O)N1 (stereo partly drawn) [TR-287, 2-(2,6-dioxopiperidin-3-yl)-5-(3-((1-(6-(6-((R)-2˜ (3-fluorophenyl)pyrrolidin-1-yl)imidazo[1,2-b]pyridazin-3-yl)pyridin-2-yl)piperidin-4-yl)oxy)azetidin-1-yl)isoindoline-1,3-dione] | 19.3 | – | –

More lines, now with the values behind:

Row | Structure (SMILES) | percent degradation of TPM3-TRKA protein at 0.01 µM (TPM3-TRKA fusion protein; [2]) [%] | IC50 (KM12 cells; [1]) [nM] | IC50 (KM12 cells; KM12, 72 h) [nM] | percent degradation of TPM3-TRKA protein at 0.01 µM (TPM3-TRKA fusion protein; KM12, 16 h) [%]
9 | O=C1CCC(N2C(=O)c3ccc(N4CC(CN5CCN(c6ccc(C(=O)Nc7n[nH]c8ccc(Cc9cc(F)cc(F)c9)cc78)c(NCCF)c6)CC5)C4)cc3C2=O)C(=O)N1 (stereo not drawn) [TR-267, N-(5-(3,5-difluorobenzyl)-1H-indazol-3-yl)-4-(4-((1-(2-(2,6-dioxopiperidin-3-yl)-1,3-dioxoisoindolin-5-yl)azetidin-3-yl)methyl)piperazin-1-yl)-2-((2-fluoroethyl)amino)benzamide] | > 80 | 11.7 | – | –
10 | O=C1CCC(N2C(=O)c3ccc(NCCN4CCN(c5ccc(C(=O)Nc6n[nH]c7ccc(Cc8cc(F)cc(F)c8)cc67)c(NCCF)c5)CC4)cc3C2=O)C(=O)N1 (stereo not drawn) [TR-268, N-(5-(3,5-Difluorobenzyl)-1H-indazol-3-yl)-4-(4-(2-((2-(2,6-dioxopiperidin-3-yl)-1,3-dioxoisoindolin-5-yl)amino)ethyl)piperazin-1-yl)-2-((2-fluoroethyl)amino)benzamide] | > 80 | 6.2 | – | –
11 | O=C1CCC(N2C(=O)c3ccc(N4CCN(c5ccc(C(=O)Nc6n[nH]c7ccc(Cc8cc(F)cc(F)c8)cc67)c(NC6CCOCC6)c5)CC4)cc3C2=O)C(=O)N1 (stereo not drawn) [TR-269, N-(5-(3,5-Difluorobenzyl)-1H-indazol-3-yl)-4-(4-(2-(2,6-dioxopiperidin-3-yl)-1,3-dioxoisoindolin-5-yl)piperazin-1-yl)-2-((tetrahydro-2H-pyran-4-yl)amino)benzamide] | < 50 | 44.6 | – | –
12 | O=C1CCC(N2C(=O)c3ccc(N4CCC(CN5CCN(c6ccc(C(=O)Nc7n[nH]c8ccc(Cc9cc(F)cc(F)c9)cc78)c(NC7CCOCC7)c6)CC5)C4)cc3C2=O)C(=O)N1 (stereo not drawn) [TR-270, N-(5-(3,5-difluorobenzyl)-1H-indazol-3-yl)-4-(4-((1-(2-(2,6-dioxopiperidin-3-yl)-1,3-dioxoisoindolin-5-yl)pyrrolidin-3-yl)methyl)piperazin-1-yl)-2-((tetrahydro-2H-pyran-4-yl)amino)benzamide] | > 80 | 10.3 | – | –
13 | O=C1CCC(N2C(=O)c3ccc(N4CCC(CN5CCN(c6ccc(C(=O)Nc7n[nH]c8ccc(Cc9cc(F)cc(F)c9)cc78)c(NC7CCOCC7)c6)CC5)CC4)cc3C2=O)C(=O)N1 (stereo not drawn) [TR-271, N-(5-(3,5-Difluorobenzyl)-1H-indazol-3-yl)-4-(4-((1-(2-(2,6-dioxopiperidin-3-yl)-1,3-dioxoisoindolin-5-yl)piperidin-4-yl)methyl)piperazin-1-yl)-2-((tetrahydro-2H-pyran-4-yl)amino)benzamide] | > 80 | 22 | – | –
14 | O=C1CCC(N2C(=O)c3ccc(N4CCCC(CN5CCN(c6ccc(C(=O)Nc7n[nH]c8ccc(Cc9cc(F)cc(F)c9)cc78)c(NC7CCOCC7)c6)CC5)C4)cc3C2=O)C(=O)N1 (stereo not drawn) [TR-272] | 50 to 80 | 20.1 | – | –
15 | O=C1CCC(N2C(=O)c3ccc(NC(=O)CN4CCN(c5ccc(C(=O)Nc6n[nH]c7ccc(Cc8cc(F)cc(F)c8)cc67)c(NC6CCOCC6)c5)CC4)cc3C2=O)C(=O)N1 (stereo not drawn) [TR-273, N-(5-(3,5-Difluorobenzyl)-1H-indazol-3-yl)-4-(4-(2-((2-(2,6-dioxopiperidin-3-yl)-1,3-dioxoisoindolin-5-yl)amino)-2-oxoethyl)piperazin-1-yl)-2-((tetrahydro-2H-pyran-4-yl)amino)benzamide] | > 80 | 41.1 | – | –
16 | O=C1CCC(N2C(=O)c3ccc(CCCN4CCN(c5ccc(C(=O)Nc6n[nH]c7ccc(Cc8cc(F)cc(F)c8)cc67)c(NC6CCOCC6)c5)CC4)cc3C2=O)C(=O)N1 (stereo not drawn) [TR-276, N-(5-(3,5-difluorobenzyl)-1H-indazol-3-yl)-4-(4-(3-(2˜ (2,6-dioxopiperidin-3-yl)-1,3-dioxoisoindolin-5-yl)propyl)piperazin-1-yl)-2-((tetrahydro-2H-pyran-4-yl)amino)benzamide] | > 80 | 9.9 | – | –
17 | O=C1CCC(N2C(=O)c3ccc(N4CCCC(N5CCN(c6ccc(C(=O)Nc7n[nH]c8ccc(Cc9cc(F)cc(F)c9)cc78)c(NC7CCOCC7)c6)CC5)C4)cc3C2=O)C(=O)N1 (stereo not drawn) [TR-278, N-(5-(3,5-Difluorobenzyl)-1H-indazol-3-yl)-4-(4-(1-(2-(2,6-dioxopiperidin-3-yl)-1,3-dioxoisoindolin-5-yl)piperidin-3-yl)piperazin-1-yl)-2-((tetrahydro-2/-pyran-4-yl)amino)benzamide] | 50 to 80 | 34.7 | – | –
18 | O=C1CCC(N2C(=O)c3ccc(N4CCC(N5CCN(c6ccc(C(=O)Nc7n[nH]c8ccc(Cc9cc(F)cc(F)c9)cc78)c(NC7CCOCC7)c6)CC5)CC4)cc3C2=O)C(=O)N1 (stereo not drawn) [TR-280, N-(5-(3,5-difluorobenzyl)-1H-indazol-3-yl)-4-(4-(1-(2-(2,6-dioxopiperidin-3-yl)-1,3-dioxoisoindolin-5-yl)piperidin-4-yl)piperazin-1-yl)-2-((tetrahydro-2H-pyran-4-yl)amino)benzamide] | – | – | 4.3 | > 80
